The results in this text go back to US20040023972A1, “Use of substituted imidazo[1,2-a]-pyridin-, -pyrimidin-and-pyrazin-3-yl-amine derivatives in the preparation of medicaments for inhibiting NOS” (Gruenenthal GmbH, priority 2000, published 2004).

In general, inhibition refers to the share of the control response that was lost under treatment.

The first experiment has as its target T1, NO synthase (Rattus norvegicus, UniProt P29476).
T1 construct: the supernatant was then removed by decantation and frozen in portions at −80° C; from tissue; host or cells: rat cerebellum, 20,000 g supernatant of homogenate
In words: HTS-NOS assay (NOS assay): conversion of radioactive arginine, cation-exchanger filter plate. The class given is biochemical. As to conditions: 10 μM. The method in brief:
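Percent inhibition was derived by comparing remaining radioactive arginine with compound-free controls. Arginine retained on phosphate cation-exchanger filters was counted after citrulline washout, following a 5-60 min room-temperature (25 °C) reaction of labelled arginine, NADPH-containing medium and rat cerebellar homogenate supernatant.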
Consider `C#[N+]CCCCCCNc1c(-c2cccc3ccccc23)nc2cc(C)cc(C)n12` [Example 128, [6-(5,7-Dimethyl-2-naphthalen-1-yl-imidazo[1,2-a]pyridin-3-ylamino)-hexyl]-methylidyne-ammonium], for which the “HTS-NOS assay: % inhibition (10 μM)” value came to 63%.
As for `[C-]#[N+]CCCCCCNc1c(-c2cccc(O)c2)nc2c(C)cccn12` [Example 131, {6-[2-(3-Hydroxy-phenyl)-8-methyl-imidazo[1,2-a]pyridin-3-ylamino]-hexyl}-methylidyne-ammonium], the “HTS-NOS assay: % inhibition (10 μM)” value is 55%.
`[C-]#[N+]CCCCCCNc1c(-c2ccccc2Br)nc2cc(C)ccn12` [Example 137, {6-[2-(2-Bromo-phenyl)-7-methyl-imidazo[1,2-a]pyridin-3-ylamino]-hexyl}-methylidyne-ammonium]: the “HTS-NOS assay: % inhibition (10 μM)” value is 52%.
On to `CC(=O)OCc1ccc(-c2nc3cc(C)cc(C)n3c2N(C(C)=O)C2CCCCC2)o1` [Example 158, acetic acid 5-[3-(acetyl-cyclohexyl-amino)-5,7-dimethyl-imidazo[1,2-a]pyridin-2-yl]-furan-2-yl methyl ester], for which the “HTS-NOS assay: % inhibition (10 μM)” value came to 54%.
As for `[C-]#[N+]CCCCCCN(C(C)=O)c1c(-c2ccco2)nc2cc(C)cc(C)n12` [Example 159, {6-[acetyl-(2-furan-2-yl-5,7-dimethyl-imidazo[1,2-a]pyridin-3-yl)-amino]-hexyl}-methylidyne-ammonium], the “HTS-NOS assay: % inhibition (10 μM)” value worked out at 61%.

Staying with this experiment, now noted: read-out: HTS-NOS assay: % inhibition (10 μM).
In the case of `Cc1ccc2nc(-c3ccc(C(=O)O)s3)c(NC(C)(C)C)n2c1` [Example 127, 5-(3-Tert-butylamino-6-methyl-imidazo[1,2-a]pyridin-2-yl)-thiophene-2-carboxylic acid], the inhibition at 10 µM was 52%.
In the case of `Cc1cc(C)n2c(Nc3c(C)cccc3C)c(-c3cccc(O)c3)nc2c1` [Example 129, 3-[3-(2,6-Dimethyl-phenylamino)-5,7-dimethyl-imidazo[1,2-a]pyridin-2-yl]-phenol], the inhibition at 10 µM is 61%.
As to `Cc1ccccc1-c1nc2c(C)cccn2c1Nc1c(C)cccc1C` [Example 130, (2,6-Dimethyl-phenyl)-(8-methyl-2-o-tolyl-imidazo[1,2-a]pyridin-3-yl)-amine], the inhibition at 10 µM turned out to be 58%.
The same measure, in the same setting: with `Cc1ccn2c(Nc3c(C)cccc3C)c(-c3ccc(CO)o3)nc2n1` [Example 132, {5-[3-(2,6-Dimethyl-phenylamino)-7-methyl-imidazo[1,2-a]pyrimidin-2-yl]-furan-2-yl}-methanol] the figure was 52%; with `Cc1ccc(-c2nc3c(C)cccn3c2NC(C)(C)CC(C)(C)C)cc1` [Example 133, (8-Methyl-2-p-tolyl-imidazo[1,2-a]pyridin-3-yl)-(1,1,3,3-tetramethyl-butyl)-amine], 52%; with `Cc1ccc2nc(-c3ccc(Cl)cc3Cl)c(Nc3c(C)cccc3C)n2c1` [Example 134, [2-(2,4-Dichlorophenyl)-6-methyl-imidazo[1,2-a]pyridin-3-yl]-(2,6-dimethyl-phenyl)-amine], 56%.
For the molecule `CCCCNc1c(-c2ccc(Cl)cc2Cl)nc2ccc(C)cn12` [Example 135, Butyl-[2-(2,4-dichloro-phenyl)-6-methyl-imidazo[1,2-a]pyridin-3-yl]-amine], the inhibition at 10 µM is 50%.
On the same count and under the same terms, with `CCCCNc1c(-c2ccc(N(C)C)c3ccccc23)nc2cnccn12` [Example 136, Butyl-[2-(4-dimethylamino-naphthalen-1-yl)-imidazo[1,2-a]pyrazin-3-yl]-amine] the figure was 56%; with `CCCCNc1c(-c2ccccc2OC)nc2ccc(C)cn12` [Example 138, Butyl-[2-(2-methoxy-phenyl)-6-methyl-imidazo[1,2-a]pyridin-3-yl]-amine], 52%; with `Cc1cccn2c(NC(C)(C)CC(C)(C)C)c(C3CCCCC3)nc12` [Example 139, (2-Cyclohexyl-8-methyl-imidazo[1,2-a]-pyridin-3-yl)-(1,1,3,3-tetramethyl-butyl)-amine], 51%.
As for `Cc1ccn2c(NC3CCCCC3)c(-c3ccccn3)nc2c1` [Example 140, Cyclohexyl-(7-methyl-2-pyridin-2-yl-imidazo[1,2-a]pyridin-3-yl)-amine], the inhibition at 10 µM turned out to be 55%.
As for `Cc1ccn2c(NC3CCCCC3)c(-c3ccco3)nc2c1` [Example 141, Cyclohexyl-(2-furan-2-yl-7-methyl-imidazo[1,2-a]pyridin-3-yl)-amine], the inhibition at 10 µM is 64%.
Turning to `COC(=O)CNc1c(C2CCCCC2)nc2cc(C)cc(C)n12` [Example 142, (2-Cyclohexyl-5,7-dimethyl-imidazo[1,2-a]-pyridin-3-ylamino)-acetic acid methyl ester], the inhibition at 10 µM was determined as 59%.
Consider `CC(=O)N(c1c(-c2ccco2)nc2cc(C)cc(C)n12)C(C)(C)CC(C)(C)C` [Example 143, N-(2-furan-2-yl-5,7-dimethyl-imidazo[1,2-a]pyridin-3-yl)-N-(1,1,3,3-tetramethylbutyl)-acetamide], for which the inhibition at 10 µM came to 68%.
On to `CC(=O)N(c1c(-c2cccnc2)nc2cc(C)ccn12)C(C)(C)C` [Example 144, N-tert-butyl-N-(7-methyl-2-pyridin-3-yl-imidazo[1,2-a]pyridin-3-yl)-acetamide], for which the inhibition at 10 µM was 59%.
On the same count and under the same terms, with `CC(=O)N(c1c(-c2ccco2)nc2cc(C)cc(C)n12)C(C)(C)C` [Example 145, N-tert-butyl-N-(2-furan-2-yl-5,7-dimethyl-imidazo[1,2-a]pyridin-3-yl)-acetamide] the figure was 66%.
Still for that read-out and setting: with `CC(=O)N(c1c(-c2ccncc2)nc2cc(C)cc(C)n12)C(C)(C)CC(C)(C)C` [Example 146, N-(5,7-dimethyl-2-pyridin-4-yl-imidazo[1,2-a]pyridin-3-yl)-N-(1,1,3,3-tetramethyl-butyl)-acetamide] the figure was 59%.
Regarding `CC(=O)N(c1c(-c2cccnc2)nc2cc(C)cc(C)n12)C(C)(C)CC(C)(C)C` [Example 147, N-(5,7-dimethyl-2-pyridin-3-yl-imidazo[1,2-a]pyridin-3-yl)-N-(1,1,3,3-tetramethyl-butyl)-acetamide], the inhibition at 10 µM was found to be 68%.
Take `CC(=O)N(c1c(C)cccc1C)c1c(-c2ccccc2C)nc2cc(C)cc(C)n12` [Example 148, N-(2,6-dimethyl-phenyl)-N-(5,7-dimethyl-2-o-tolyl-imidazo[1,2-a]pyridin-3-yl)-acetamide]: the inhibition at 10 µM came out at 57%.
For the molecule `CC(=O)N(c1c(-c2ccco2)nc2cc(C)ccn12)C(C)(C)CC(C)(C)C` [Example 149, N-(2-furan-2-yl-7-methyl-imidazo[1,2-a]pyridin-3-yl)-N-(1,1,3,3-tetramethylbutyl)-acetamide], the inhibition at 10 µM turned out to be 55%.
Consider `CC(=O)N(c1c(C)nc2cc(C)cc(C)n12)C(C)(C)CC(C)(C)C` [Example 150, N-(1,1,3,3-tetramethyl-butyl)-N-(2,5,7-trimethyl-imidazo[1,2-a]pyridin-3-yl)-acetamide], for which the inhibition at 10 µM came to 60%.
`CC(=O)N(c1c(-c2cccs2)nc2cc(C)ccn12)C1CCCCC1` [Example 151, N-cyclohexyl-N-(7-methyl-2-thiophen-2-yl-imidazo[1,2-a]pyridin-3-yl)-acetamide]: the inhibition at 10 µM turned out to be 65%.
`CC(=O)N(c1c(C)nc2cc(C)cc(C)n12)C(C)(C)C` [Example 152, N-tert-butyl-N-(2,5,7-trimethyl-imidazo[1,2-a]pyridin-3-yl)-acetamide]: the inhibition at 10 µM came out at 66%.
Consider `CC(=O)N(c1c(-c2ccc(C(=O)O)s2)nc2cnccn12)C(C)(C)C` [Example 153, 5-[3-(acetyl-tert-butyl-amino)-imidazo[1,2-a]pyrazin-2-yl]-thiophene-2-carboxylic acid], for which the inhibition at 10 µM is 78%.
`CC(=O)N(c1c(-c2ccc(C(=O)O)o2)nc2cc(C)cc(C)n12)C(C)(C)CC(C)(C)C` [Example 154, 5-{3-[acetyl-(1,1,3,3-tetramethyl-butyl)-amino]-5,7-dimethyl-imidazo[1,2-a]-pyridin-2-yl}-furan-2-carboxylic acid]: the inhibition at 10 µM was 60%.
Take `CC(=O)N(c1c(-c2ccc(CO)o2)nc2cc(C)cc(C)n12)C(C)(C)CC(C)(C)C` [Example 155, N-[2-(5-hydroxymethyl-furan-2-yl)-5,7-dimethyl-imidazo[1,2-a]pyridin-3-yl]-N-(1,1,3,3-tetramethyl-butyl)-acetamide]: the inhibition at 10 µM amounted to 50%.
Take `CC(=O)N(c1c(C)cccc1C)c1c(-c2sccc2Br)nc2cc(C)cc(C)n12` [Example 156, N-[2-(3-bromo-thiophen-2-yl)-5,7-dimethyl-imidazo[1,2-a]pyridin-3-yl]-N-(2,6-dimethyl-phenyl)-acetamide]: the inhibition at 10 µM was 74%.
Take `CC(=O)N(c1c(C2CCCCC2)nc2cc(C)cc(C)n12)C(C)(C)C` [Example 157, N-tert-butyl-N-(2-cyclohexyl-5,7-dimethyl-imidazo[1,2-a]pyridin-3-yl)-acetamide]: the inhibition at 10 µM is 63%.
Regarding `CC(=O)N(c1c(C)cccc1C)c1c(-c2cccc(Cl)c2Cl)nc2cc(C)ccn12` [Example 160, N-[2-(2,3-dichloro-phenyl)-7-methyl-imidazo[1,2-a]pyridin-3-yl]-N-(2,6-dimethyl-phenyl)-acetamide], the inhibition at 10 µM was found to be 55%.
For `CC(=O)N(c1c(-c2sccc2Br)nc2ccccn12)C1CCCCC1` [Example 161, N-[2-(3-bromo-thiophen-2-yl)-imidazo[1,2-a]pyridin-3-yl]-N-cyclohexyl-acetamide], the inhibition at 10 µM came to 51%.
Regarding `CC(=O)N(c1c(-c2ccc(C)cc2)nc2cc(C)cc(C)n12)C(C)(C)CC(C)(C)C` [Example 162, N-(5,7-dimethyl-2-p-tolyl-imidazo[1,2-a]pyridin-3-yl)-N-(1,1,3,3-tetramethylbutyl)-acetamide], the inhibition at 10 µM stood at 67%.
